Literature values as cited in patent US7604797B2, “Compositions and methods for treating burns” (BioMechanisms Inc., priority 2003, dated 2009).
Where two headings read alike, the source gives them in different places. Where a SMILES comes first, the peptide text is derived from it. Bridges are numbered along the chain shown (N, C = ends). [ ]: non-standard residue; d: D form. The star is where a group is joined. Ileψ(thiazoline)Cys = CC[C@H](C)[C@H](N)C1=N[C@H](C(=O)*)CS1; dOrn = NCCC[C@@H](N)C(=O)O

Experiments:
malignant tumors = conditions: for Tumor response in patients: acute lymphocytic leukemia, Burkitt's lymphoma, breast carcinoma, mycosis fungoides, epidermoid head and neck cancer, osteogenic sarcoma; for Toxicity of chemotherapy: partly related to polyglutamate formation
[1] = test system: gram-positive and gram-negative organisms, fungi; conditions: topical use on burns

| Molecule | Tumor response in patients (malignant tumors) | Toxicity of chemotherapy (malignant tumors) | Benefits: effectiveness against microorganisms [1] | other results |
| --- | --- | --- | --- | --- |
| Nc1nc(N)c2nc(CNc3ccc(C(=O)NC(CCC(=O)O)C(=O)O)cc3)cnc2n1 (stereo not shown) [AMT, 4-amino-4-deoxy-pteroylglutamic acid] | good to excellent tumor response | a variety of toxicities | – | – |
| CC[C@H](C)[C@H](N)C1=N[C@H](C(=O)N[C@@H](CC(C)C)C(=O)N[C@H](CCC(=O)O)C(=O)N[C@H](C(=O)N[C@H]2CCCCNC(=O)[C@H](CC(N)=O)NC(=O)[C@@H](CC(=O)O)NC(=O)[C@H](Cc3cnc[nH]3)NC(=O)[C@@H](Cc3ccccc3)NC(=O)[C@H]([C@@H](C)CC)NC(=O)[C@@H](CCCN)NC2=O)[C@@H](C)CC)CS1 [Bacitracin] ({Ileψ(thiazoline)Cys}-L[dE]IK[dOrn]I[dF]H[dD]N; lactam 4-C) | – | – | Effective against gram- | Toxicity and adverse effects in use (burn patients; in vivo): Safe, non-toxic |
| CN(Cc1cnc2nc(N)nc(N)c2n1)c1ccc(C(=O)NC(CCC(=O)O)C(=O)O)cc1 (stereo not shown) [MTX, 4-amino-4-deoxy-N^10-methyl-pteroylglutamic acid] | good to excellent tumor response | a variety of toxicities | – | – |
| C[C@@H]1[C@H](O)[C@@H](C)/C=C/C=C/CC/C=C/C=C/C=C/C=C/C(O[C@H]2O[C@H](C)[C@@H](O)[C@H](N)[C@@H]2O)CC2O[C@](O)(CC(O)C(O)CCC(O)CC(O)CC(O)CC(=O)O[C@H]1C)CC(O)C2C(=O)O (stereo partly shown) [Nystatin] | – | – | Effective against the most | – |
| Neomycin | – | – | Particularly effective | – |
| Polymyxin B Sulfate | – | – | Effective agains gram- | Toxicity and adverse effects in use (burn patients; topical use on burns): microorganisms. Non-toxic |
